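1) Cells in 96-well plates. 2) Compound, 48 h, 5 concentrations. 3) Linear interpolation between surrounding doses. 4) Unreached endpoint = highest concentration. At the GI50, growth is halved.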 Calls of active or inactive are those of the source. Rule as the data show it: active = GI50 up to about 1.1 µM and inactive = higher.
How the values were obtained:
Assay in all cases: DTP human tumour cell line panel, 48 h
786-0 = test system: 786-0
A549 = test system: A549
CCRF-CEM = test system: CCRF-CEM
COLO 205 = test system: COLO 205
HCT-116 = test system: HCT-116
M14 = test system: M14
NCI-H23 = test system: NCI-H23
SF-268 = test system: SF-268
SF-295 = test system: SF-295
SF-539 = test system: SF-539
SK-MEL-5 = test system: SK-MEL-5
SNB-19 = test system: SNB-19
U-251 = test system: U-251
UO-31 = test system: UO-31
A498 = test system: A498
HCC 2998 = test system: HCC 2998

Measured: GI50

CC12Oc3ccc4ccccc4c3C1c1c(ccc3ccccc13)O2 (stereo not given)
inactive: 786-0 > 100 µM | A549 > 100 µM | CCRF-CEM > 100 µM | COLO 205 > 100 µM | HCT-116 > 100 µM | M14 > 100 µM | NCI-H23 > 100 µM | SF-268 > 100 µM | SF-295 58.6 µM | SF-539 78.2 µM | SK-MEL-5 > 100 µM | SNB-19 > 100 µM | U-251 > 100 µM | UO-31 > 100 µM

Cc1cc2c(C)nn(Cc3ccccc3)c2c(C(N)=O)c1C
inactive: 786-0 > 100 µM | A498 > 100 µM | A549 > 100 µM | CCRF-CEM > 100 µM | COLO 205 > 100 µM | HCC 2998 > 100 µM | HCT-116 > 100 µM | M14 > 100 µM | NCI-H23 > 100 µM | SF-268 > 100 µM | SF-295 > 100 µM | SF-539 > 100 µM | SK-MEL-5 > 100 µM | SNB-19 > 100 µM | U-251 > 100 µM | UO-31 67.9 µM

C[N+](C)(C)CC(=O)N/N=C(/Cc1nc2c3c(ccc2nc1O)C(=O)c1ccccc1C3=O)C(=O)Nc1ccc(Cl)c(Cl)c1
inactive: 786-0 77.6 µM | A498 33.7 µM | A549 42.7 µM | CCRF-CEM 4.16 µM | COLO 205 > 100 µM | HCC 2998 76.9 µM | HCT-116 43.3 µM | M14 81.1 µM | NCI-H23 44.6 µM | SF-268 26 µM | SF-295 79.4 µM | SF-539 93.1 µM | SK-MEL-5 36.6 µM | UO-31 6.84 µM

O=C(Cc1nc2ccccc2c(=O)n1-c1c(Cl)cccc1Cl)c1ccncc1
inactive: 786-0 24.6 µM | A498 30.5 µM | A549 21.4 µM | CCRF-CEM 16.7 µM | COLO 205 17.8 µM | HCC 2998 22.5 µM | HCT-116 17.8 µM | M14 30.6 µM | NCI-H23 36.8 µM | SF-268 31 µM | SF-295 18 µM | SF-539 18.4 µM | SK-MEL-5 15.9 µM | SNB-19 31.4 µM | U-251 29.6 µM | UO-31 13.3 µM

Clc1ncnc2c1ncn2CCCCCCCCCCCCn1cnc2c(Cl)ncnc21
inactive: 786-0 17.7 µM | A498 12.2 µM | A549 11.7 µM | CCRF-CEM 1.36 µM | COLO 205 15.6 µM | HCC 2998 6.7 µM | HCT-116 10.7 µM | M14 15.3 µM | NCI-H23 2.49 µM | SF-268 14.3 µM | SF-295 15.4 µM | SF-539 14.4 µM | SK-MEL-5 4.83 µM | SNB-19 14.7 µM | U-251 11.6 µM | UO-31 13.1 µM

Cn1c(=O)oc2cc(C3CCC(=O)N3Cc3ccc(Cl)cc3)ccc21 (stereo not given)
inactive: 786-0 > 100 µM | A549 > 100 µM | CCRF-CEM > 100 µM | COLO 205 > 100 µM | HCC 2998 > 100 µM | HCT-116 > 100 µM | M14 > 100 µM | NCI-H23 > 100 µM | SF-268 > 100 µM | SF-295 > 100 µM | SF-539 > 100 µM | SK-MEL-5 > 100 µM | SNB-19 > 100 µM | U-251 > 100 µM | UO-31 > 100 µM

Cc1nc(-c2nc(C)c(C(=O)/C=C/c3ccc([N+](=O)[O-])cc3)s2)sc1C(=O)/C=C/c1ccc([N+](=O)[O-])cc1
inactive: 786-0 > 100 µM | A498 > 100 µM | A549 > 100 µM | CCRF-CEM > 10 µM | COLO 205 > 100 µM | HCC 2998 > 100 µM | HCT-116 > 100 µM | M14 > 100 µM | NCI-H23 > 100 µM | SF-268 > 100 µM | SF-295 > 100 µM | SF-539 > 100 µM | SK-MEL-5 > 100 µM | SNB-19 > 100 µM | U-251 > 100 µM | UO-31 > 100 µM

COc1ccc(CC2(Cc3ccc(OC)cc3)CCOC2=O)cc1
inactive: 786-0 44 µM | A498 > 100 µM | A549 > 100 µM | CCRF-CEM > 100 µM | COLO 205 > 100 µM | HCT-116 > 100 µM | M14 > 100 µM | NCI-H23 > 100 µM | SF-268 45.8 µM | SF-295 60.1 µM | SNB-19 > 100 µM | U-251 > 100 µM | UO-31 > 100 µM

COC(=O)c1c(CC(=O)OC(C)C)cc2n(c1=O)Cc1c-2nc2ccccc2c1OC
inactive: 786-0 > 100 µM | A498 > 100 µM | A549 > 100 µM | CCRF-CEM > 100 µM | COLO 205 > 100 µM | HCC 2998 > 100 µM | HCT-116 > 100 µM | M14 > 100 µM | NCI-H23 > 100 µM | SF-268 > 100 µM | SF-295 > 100 µM | SK-MEL-5 > 100 µM | SNB-19 > 100 µM | U-251 > 100 µM | UO-31 > 100 µM

C[N+](C)(C)CC1CCC/C1=N\OC(=O)c1ccccc1 (stereo not given)
inactive: 786-0 > 100 µM | A498 > 100 µM | A549 > 100 µM | CCRF-CEM > 100 µM | COLO 205 > 100 µM | HCT-116 > 100 µM | M14 > 100 µM | NCI-H23 > 100 µM | SF-268 > 100 µM | SF-295 > 100 µM | SF-539 > 100 µM | SK-MEL-5 > 100 µM | SNB-19 > 100 µM | U-251 > 100 µM | UO-31 > 100 µM

CCOC(=O)/C(=C\c1ccc[nH]1)C(=O)c1ccccc1
inactive: 786-0 > 100 µM | A549 > 100 µM | CCRF-CEM 58.3 µM | COLO 205 > 100 µM | HCC 2998 > 100 µM | HCT-116 > 100 µM | M14 > 100 µM | NCI-H23 > 100 µM | SF-268 91 µM | SF-295 > 100 µM | SF-539 > 100 µM | SK-MEL-5 > 100 µM | SNB-19 > 100 µM | U-251 > 100 µM | UO-31 > 100 µM

C/C(=N\NC(=N)N)C(CN1CCCCC1)C(c1ccccc1)c1c(O)c2ccccc2oc1=O (stereo not given)
inactive: 786-0 > 100 µM | A498 > 100 µM | A549 > 100 µM | CCRF-CEM > 100 µM | COLO 205 > 100 µM | HCC 2998 > 100 µM | HCT-116 > 100 µM | M14 > 100 µM | NCI-H23 > 100 µM | SF-268 > 100 µM | SF-295 > 100 µM | SF-539 > 100 µM | SNB-19 > 100 µM

C#CCNC(=O)ON1C(=O)CCC1=O
inactive: 786-0 > 100 µM | A498 > 100 µM | A549 > 100 µM | CCRF-CEM > 100 µM | COLO 205 > 100 µM | HCT-116 > 100 µM | NCI-H23 > 100 µM | SF-268 > 100 µM | SF-295 > 100 µM | SF-539 > 100 µM | SNB-19 > 100 µM | U-251 > 100 µM | UO-31 > 100 µM

O=C(CCCCCCCCCCc1ccccc1)c1c(O)cccc1O
inactive: 786-0 17.7 µM | A549 27.7 µM | CCRF-CEM 31.6 µM | COLO 205 23.8 µM | HCC 2998 19.4 µM | HCT-116 22.7 µM | M14 20 µM | NCI-H23 18.9 µM | SF-268 23.8 µM | SF-295 21.3 µM | SF-539 18.1 µM | SK-MEL-5 16.1 µM | SNB-19 20.2 µM | U-251 21.2 µM | UO-31 21.1 µM

CCO/C(CCn1[nH]c(=O)c(Cl)c(Cl)c1=O)=N\NC(=O)C(=O)NN
inactive: 786-0 > 100 µM | A498 82.8 µM | A549 > 100 µM | CCRF-CEM > 100 µM | COLO 205 > 100 µM | HCC 2998 > 100 µM | M14 > 100 µM | NCI-H23 > 100 µM | SF-268 > 100 µM | SF-295 > 100 µM | SF-539 > 100 µM | SK-MEL-5 > 100 µM | SNB-19 > 100 µM | U-251 > 100 µM | UO-31 > 100 µM

CC1=C(C(=O)NCc2ccccc2)C(c2ccc(N(C)C)cc2)C(C(=O)NCc2ccccc2)=C(C)N1
inactive: 786-0 > 100 µM | A498 > 100 µM | A549 > 100 µM | CCRF-CEM > 100 µM | COLO 205 > 100 µM | HCC 2998 > 100 µM | HCT-116 > 100 µM | M14 > 100 µM | NCI-H23 > 100 µM | SF-295 > 100 µM | SF-539 > 100 µM | SK-MEL-5 > 100 µM | SNB-19 > 100 µM | U-251 > 100 µM | UO-31 > 100 µM

COC(=O)CCCN(C)c1nc(N)n[nH]1
inactive: 786-0 > 100 µM | A549 > 100 µM | CCRF-CEM > 100 µM | COLO 205 > 100 µM | HCC 2998 > 100 µM | HCT-116 > 100 µM | M14 > 100 µM | NCI-H23 > 100 µM | SF-268 > 100 µM | SF-295 > 100 µM | SF-539 > 100 µM | SK-MEL-5 > 100 µM | SNB-19 > 100 µM | U-251 > 100 µM | UO-31 > 100 µM

C/C(=C1/N=C(c2cc([N+](=O)[O-])ccc2Cl)N(c2cccc(C)c2)C1=O)c1cc2ccccc2oc1=O
inactive: 786-0 > 100 µM | A498 > 100 µM | A549 > 100 µM | CCRF-CEM 23.3 µM | COLO 205 45.3 µM | HCC 2998 > 100 µM | HCT-116 47.4 µM | M14 > 100 µM | NCI-H23 35.2 µM | SF-268 > 100 µM | SF-295 > 100 µM | SK-MEL-5 14 µM | SNB-19 95.5 µM | UO-31 > 100 µM

Source: ChEMBL document CHEMBL1201862, “PubChem BioAssay data set” (2004)
